13 compounds from ChEMBL document CHEMBL3407408, “Design and synthesis of a new class of cryptophycins based tubulin inhibitors” (Eur J Med Chem, 2015) can be followed below.

SMILES strings stand for the structures. Calls of active or inactive are those of the source. No cut-off for these calls is given here.

In general, IC50 refers to the concentration at which inhibition is half-maximal. Read a low IC50 as greater potency.

The test system of experiment [1] is A549. Briefly: Cell cycle arrest in human A549 cells assessed as accumulation at S phase at 30 uM after 24 hrs by propidium iodide staining-based flow cytometric analysis (reference value: 26%). It counts as functional.
The subject of experiment [2] is A549. Briefly: cells. As to conditions: Homo sapiens, A549, 48 h.
Description: Cytotoxicity against human A549 cells after 48 hrs by MTT assay
A short description of experiment [3]: Cytotoxicity against human FR2 cells after 48 hrs by MTT assay. It counts as cell-based. The note with it: FR2, 48 h. Background: Tetrazolium dyes change colour on reduction, which living cells bring about.
The test system of experiment [4] is A549. As to the kind of experiment: Cell cycle arrest in human A549 cells assessed as accumulation at G1 phase at 30 uM after 24 hrs by propidium iodide staining-based flow cytometric analysis (reference value: 69%). The experiment is classed as functional. In general terms: A flow cytometer gives signals particle by particle.
For experiment [5], the system named is A549. As to the kind of experiment: Cell cycle arrest in human A549 cells assessed as accumulation at S phase at 10 uM after 24 hrs by propidium iodide staining-based flow cytometric analysis (reference value: 26%). It counts as functional.
In experiment [6] the test system is A549. Briefly: Cell cycle arrest in human A549 cells assessed as accumulation at G1 phase at 10 uM after 24 hrs by propidium iodide staining-based flow cytometric analysis (reference value: 69%). The experiment is classed as functional.
The nature of experiment [7]: Cytotoxicity against human PC3 cells after 48 hrs by MTT assay. As to conditions: PC-3, 48 h. It counts as functional, cell-based.
Experiment [8] relates to A549. Briefly: Downregulation of beta-tubulin protein expression in human A549 cells at 10 to 30 uM after 24 hrs by Western blot analysis. The experiment is classed as functional, cell-based.
The subject of experiment [9] is A549. Briefly: Induction of apoptosis in human A549 cells assessed as formation of multiple apoptotic bodies at 10 to 30 uM after 24 hrs by Hoechst 33258 staining-based inverted fluorescence microscopic analysis. It counts as functional, cell-based.
Experiment [10] concerns A549. As to the kind of experiment: Cell cycle arrest in human A549 cells assessed as accumulation at sub-G0 phase at 10 uM after 24 hrs by propidium iodide staining-based flow cytometric analysis (reference value: 5%). It counts as functional.
The test system of experiment [11] is A549. As to the kind of experiment: Cell cycle arrest in human A549 cells assessed as accumulation at G2/M phase at 30 uM after 24 hrs by propidium iodide staining-based flow cytometric analysis (reference value: 5%). The experiment is classed as functional.
Experiment [12] concerns A549. As to the kind of experiment: Cell cycle arrest in human A549 cells assessed as increase in hypo diploid sub-G0 DNA fraction after 24 hrs by propidium iodide staining-based flow cytometric analysis. It counts as functional.
In experiment [13] the test system is A549. As to the kind of experiment: Downregulation of alpha-tubulin protein expression in human A549 cells at 10 to 30 uM after 24 hrs by Western blot analysis. It counts as functional, cell-based. For orientation: A western blot detects proteins with antibodies after separation by electrophoresis.
The subject of experiment [14] is A549. As to the kind of experiment: Induction of apoptosis in human A549 cells assessed as […] at 10 to 30 uM after 24 hrs by phase contrast microscopic analysis. The experiment is classed as functional, cell-based.
In experiment [15] the test system is A549. As to the kind of experiment: Induction of apoptosis in human A549 cells assessed as cellular blebs at 10 to 30 uM after 24 hrs by phase contrast microscopic analysis. The experiment is classed as functional, cell-based.
Experiment [16] deals with A549. As to the kind of experiment: Induction of apoptosis in human A549 cells assessed as shrinkage of cell size at 10 to 30 uM after 24 hrs by phase contrast microscopic analysis. It counts as functional, cell-based.
For experiment [17], the system named is A549. As to the kind of experiment: Cell cycle arrest in human A549 cells assessed as accumulation at G2/M phase at 10 uM after 24 hrs by propidium iodide staining-based flow cytometric analysis (reference value: 5%). The experiment is classed as functional.
Experiment [18] has as its system A549. As to the kind of experiment: Cell cycle arrest in human A549 cells assessed as accumulation at sub-G0 phase at 30 uM after 24 hrs by propidium iodide staining-based flow cytometric analysis (reference value: 5%). It counts as functional.
For experiment [19], the system named is HeLa. As to the kind of experiment: cells. As to conditions: Homo sapiens, 48 h.
Description: Cytotoxicity against human HeLa cells after 48 hrs by MTT assay
Experiment [20] has as its system A549. As to the kind of experiment: Cell cycle arrest in human A549 cells assessed as accumulation at G2/M phase at 1 uM by propidium iodide staining-based flow cytometric analysis (reference value: 5%). It counts as functional.

As for `COc1ccc(C[C@H]2NC(=O)/C=C/C[C@@H](c3ccc([N+](=O)[O-])cc3)OC(=O)[C@H](CC(C)C)OC(=O)CCNC2=O)cc1`, the Activity was determined as 30% in experiment [1]; 62% in [4]; 35% in experiment [5]; 59% in experiment [6]; 11% in experiment [10]; 8% in experiment [11]. Moreover, the results for the Activity result in experiment [12], in experiment [17] and in [18] were “Dose-dependent effect”, 6% and 26%, respectively. For the same compound, the IC50 in [2] amounted to 10 µM; in experiment [3], 97 µM; in experiment [7] it was 15 µM; in experiment [19] it was 28 µM. Further, the result in [8], in [9], in experiment [13], in experiment [14], in experiment [15] and in [16] was Active.

With `COc1ccc(C[C@@H]2NC(=O)/C=C/C[C@@H](c3cccc([N+](=O)[O-])c3)OC(=O)[C@H](CC(C)C)OC(=O)CCNC2=O)cc1`, the IC50 turned out to be 90 µM in [2], 93 µM in [3], 100 µM in experiment [7] and 35 µM in experiment [19].

As for `COc1ccc(C[C@@H]2NC(=O)/C=C/C[C@@H](c3ccc(Cl)cc3Cl)OC(=O)[C@H](CC(C)C)OC(=O)CCNC2=O)cc1`, the IC50 in experiment [2] was 45 µM; in [3] it was greater than 100 µM; in experiment [7] it was 32 µM; in [19], 33 µM.

For `CC(=O)O[C@H]1C(=O)[C@@]2(C)[C@H]([C@H](OC(=O)c3ccccc3)[C@]3(O)C[C@H](OC(=O)[C@H](O)[C@@H](NC(=O)c4ccccc4)c4ccccc4)C(C)=C1C3(C)C)[C@]1(OC(C)=O)CO[C@@H]1C[C@@H]2O` [PACLITAXEL], the results for the IC50 in [2], in experiment [3] and in [7] were 0.025 µM, 16 µM and 0.012 µM, respectively. Also, the Activity in experiment [20] is listed as 45%.

As to `COc1ccc(C[C@@H]2NC(=O)/C=C/C[C@@H](c3c(F)c(F)c(F)c(F)c3F)OC(=O)[C@H](CC(C)C)OC(=O)CCNC2=O)cc1`, the IC50 is greater than 100 µM in experiment [2], 79 µM in experiment [3], 100 µM in [7] and 100 µM in experiment [19].

With `COc1ccc(C[C@H]2NC(=O)/C=C/C[C@@H](c3ccccc3[N+](=O)[O-])OC(=O)[C@H](CC(C)C)OC(=O)CCNC2=O)cc1`, the IC50 in experiment [2] is 15 µM; in [3], greater than 100 µM; in experiment [7], 67 µM; in experiment [19], 29 µM.

In the case of `COc1ccc(C[C@@H]2NC(=O)/C=C/C[C@@H](c3ccccc3[N+](=O)[O-])OC(=O)[C@H](CC(C)C)OC(=O)CCNC2=O)cc1`, the IC50 in [2] is 13 µM; in experiment [3], 90 µM; in experiment [7], 100 µM; in [19], 47 µM.

For `COc1ccc(C[C@H]2NC(=O)/C=C/C[C@@H](c3ccc(Br)cc3)OC(=O)[C@H](CC(C)C)OC(=O)CCNC2=O)cc1`, the IC50 in experiment [2] turned out to be 60 µM; in [3] it was 87 µM; in experiment [7] it was 60 µM; in experiment [19] it was 55 µM.

`COc1ccc(C[C@H]2NC(=O)/C=C/C[C@@H](c3ccc(Cl)cc3Cl)OC(=O)[C@H](CC(C)C)OC(=O)CCNC2=O)cc1`: the IC50 is 100 µM in experiment [2], greater than 100 µM in experiment [3], 100 µM in experiment [7] and 90 µM in experiment [19].

Take `COc1ccc(C[C@H]2NC(=O)/C=C/C[C@@H](c3cccc([N+](=O)[O-])c3)OC(=O)[C@H](CC(C)C)OC(=O)CCNC2=O)cc1`: the IC50 in experiment [2], in [3], in experiment [7] and in experiment [19] was greater than 100 µM in each case.

Turning to `COc1ccc(C[C@@H]2NC(=O)/C=C/C[C@@H](c3ccc([N+](=O)[O-])cc3)OC(=O)[C@H](CC(C)C)OC(=O)CCNC2=O)cc1`, the Activity amounted to 1% in [1]; 80% in experiment [4]; 25% in experiment [5]; 65% in experiment [6]; 19% in experiment [10]; 19% in experiment [11]. The Activity entry was “Dose-dependent effect” in [12], 10% in experiment [17] and 49% in experiment [18]. The IC50 in [2] turned out to be 11 µM; in experiment [3], 78 µM; in experiment [7], 70 µM; in [19], 40 µM. The result in experiment [8], in [9], in experiment [13], in [14], in [15] and in experiment [16] was Active.

Take `COc1ccc(C[C@@H]2NC(=O)/C=C/C[C@@H](c3ccc(Br)cc3)OC(=O)[C@H](CC(C)C)OC(=O)CCNC2=O)cc1`: the IC50 in [2] is 56 µM; in experiment [3] it was greater than 100 µM; in [7], 68 µM; in experiment [19], 60 µM.

For `COc1ccc(C[C@H]2NC(=O)/C=C/C[C@@H](c3c(F)c(F)c(F)c(F)c3F)OC(=O)[C@H](CC(C)C)OC(=O)CCNC2=O)cc1`, the IC50 was 30 µM in experiment [2], greater than 100 µM in experiment [3], 70 µM in [7] and 78 µM in [19].
